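Step 1: Grow cells in 96-well plates. Step 2: Expose to compound for 48 hours at 5 concentrations. Step 3: Interpolate endpoints linearly; if unreached, use highest concentration. GI50 is the concentration that inhibits growth by half.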 Active and inactive are the calls of the source. Rule as the data show it: active = GI50 up to about 1.1 µM and inactive = higher. Where a SMILES comes first, the peptide text is derived from it. [ ]: non-standard residue; d: D form. The star is where a group is joined. ξ: configuration not given here. X38 = O=C(OCc1ccccc1)[C@@H]1CCC[C@H]1N*; Fmoc = O=C(OCC1c2ccccc2-c2ccccc21)*; ξW = NC(Cc1c[nH]c2ccccc12)C(=O)O; ξF = NC(Cc1ccccc1)C(=O)O; Boc = CC(C)(C)OC(=O)*; ξK = NCCCCC(N)C(=O)O; ξT = CC(O)C(N)C(=O)O; tBu = CC(C)(C)*
Tests used:
Assay in all cases: DTP human tumour cell line panel, 48 h
A498 = system: A498
A549 = system: A549
HCT-116 = system: HCT-116
HCT-15 = system: HCT-15
HT-29 = system: HT-29
IGROV-1 = system: IGROV-1
MDA-MB-231 = system: MDA-MB-231
NCI-H226 = system: NCI-H226
SF-268 = system: SF-268
SK-MEL-28 = system: SK-MEL-28
SK-MEL-5 = system: SK-MEL-5
SK-OV-3 = system: SK-OV-3
SNB-19 = system: SNB-19
SR = system: SR
T47D = system: T47D
TK-10 = system: TK-10
U-251 = system: U-251
BT-549 = system: BT-549

Row | SMILES | GI50 (A498) | GI50 (A549) | GI50 (HCT-116) | GI50 (HCT-15) [µM] | GI50 (HT-29) | GI50 (IGROV-1) | GI50 (MDA-MB-231) | GI50 (NCI-H226) | GI50 (SF-268) | GI50 (SK-MEL-28) | GI50 (SK-MEL-5) | GI50 (SK-OV-3) | GI50 (SNB-19) | GI50 (SR) | GI50 (T47D) | GI50 (TK-10) | GI50 (U-251) | GI50 (BT-549)
1 | CNC(=O)/C(C#N)=C(\N)N1CCCC1 | > 100 µM (inactive) | > 100 µM (inactive) | > 100 µM (inactive) | > 100 | > 100 µM (inactive) | > 100 µM (inactive) | > 100 µM (inactive) | > 100 µM (inactive) | > 100 µM (inactive) | > 100 µM (inactive) | > 100 µM (inactive) | > 100 µM (inactive) | > 100 µM (inactive) | > 100 µM (inactive) | > 100 µM (inactive) | > 100 µM (inactive) | > 100 µM (inactive) | –
2 | COc1cc2cc(C(=O)N3CC(CCl)c4ccc(O)cc43)[nH]c2c(OC)c1OC (stereo not drawn) | < 0.01 µM (active) | 0.000501 µM (active) | < 0.0001 µM (active) | 0.00562 | 0.00104 µM (active) | 0.0198 µM (active) | 0.00196 µM (active) | 0.0168 µM (active) | 0.00596 µM (active) | 0.00196 µM (active) | < 0.0001 µM (active) | – | 0.00406 µM (active) | 0.0034 µM (active) | 0.0356 µM (active) | 0.0408 µM (active) | 0.000791 µM (active) | –
3 | CC(=O)NNC1=NN(C(C)=O)C2(S1)C(=O)Nc1ccc(Br)cc12 (stereo not drawn) | > 100 µM (inactive) | > 100 µM (inactive) | > 100 µM (inactive) | > 100 | > 100 µM (inactive) | 35.9 µM (inactive) | > 100 µM (inactive) | > 100 µM (inactive) | > 100 µM (inactive) | > 100 µM (inactive) | > 100 µM (inactive) | – | > 100 µM (inactive) | > 100 µM (inactive) | 22 µM (inactive) | > 100 µM (inactive) | > 100 µM (inactive) | 59.6 µM (inactive)
4 | COC(=O)[C@@H](Cc1ccccc1)N1O[C@]12CCCC[C@@H]2NC(=O)OC(C)(C)C (stereo partly drawn) | 41.8 µM (inactive) | 29.2 µM (inactive) | 38.7 µM (inactive) | 18.4 | 18.3 µM (inactive) | 14.7 µM (inactive) | 19.5 µM (inactive) | 47.3 µM (inactive) | 18 µM (inactive) | 22.1 µM (inactive) | 19.5 µM (inactive) | – | 74.3 µM (inactive) | 29.3 µM (inactive) | 24.7 µM (inactive) | 25.1 µM (inactive) | 26.9 µM (inactive) | 18.1 µM (inactive)
5 | CC(OC(C)(C)C)C(NC(=O)C(CCCCNC(=O)OC(C)(C)C)NC(=O)C(Cc1c[nH]c2ccccc12)NC(=O)C(Cc1ccccc1)NC(=O)OCC1c2ccccc2-c2ccccc21)C(=O)NC(Cc1ccccc1)C(=O)N[C@@H]1CCC[C@H]1C(=O)OCc1ccccc1 (stereo partly drawn) (Fmoc-[ξF][ξW][ξK](Boc)[ξT](tBu)[ξF]-X38) | > 10 µM (inactive) | > 100 µM (inactive) | > 100 µM (inactive) | > 100 | > 100 µM (inactive) | > 100 µM (inactive) | 65.3 µM (inactive) | > 100 µM (inactive) | > 100 µM (inactive) | > 100 µM (inactive) | 14.6 µM (inactive) | > 100 µM (inactive) | – | > 100 µM (inactive) | > 100 µM (inactive) | > 100 µM (inactive) | > 100 µM (inactive) | –
6 | CC(C)C(=O)Oc1cc2c(=O)oc3c(OC(=O)C(C)C)c(OC(=O)C(C)C)cc4c(=O)oc(c1OC(=O)C(C)C)c2c34 | > 100 µM (inactive) | > 100 µM (inactive) | > 100 µM (inactive) | > 100 | > 100 µM (inactive) | > 100 µM (inactive) | > 100 µM (inactive) | > 100 µM (inactive) | > 100 µM (inactive) | > 100 µM (inactive) | > 100 µM (inactive) | > 100 µM (inactive) | > 100 µM (inactive) | – | – | > 100 µM (inactive) | > 100 µM (inactive) | > 100 µM (inactive)
7 | COc1ccc(/C=C2/S/C(=N\c3ccccc3)N(NC(=O)Cc3ccccc3)C2=O)cc1 | > 100 µM (inactive) | > 100 µM (inactive) | > 100 µM (inactive) | > 100 | > 100 µM (inactive) | > 100 µM (inactive) | > 100 µM (inactive) | > 100 µM (inactive) | > 100 µM (inactive) | > 100 µM (inactive) | > 100 µM (inactive) | > 100 µM (inactive) | > 100 µM (inactive) | – | > 100 µM (inactive) | > 100 µM (inactive) | > 100 µM (inactive) | > 100 µM (inactive)
8 | Cc1ccc(-c2nc3cc([N+](=O)[O-])ccc3[nH]2)cc1 | – | 54.1 µM (inactive) | 89.9 µM (inactive) | 52.8 | 39.2 µM (inactive) | > 100 µM (inactive) | > 100 µM (inactive) | > 100 µM (inactive) | > 100 µM (inactive) | > 100 µM (inactive) | 64.7 µM (inactive) | > 100 µM (inactive) | > 100 µM (inactive) | 70.8 µM (inactive) | 39.6 µM (inactive) | > 100 µM (inactive) | > 100 µM (inactive) | > 100 µM (inactive)
9 | NC(=S)c1cccc(C2Nc3ccccc3O2)c1 (stereo not drawn) | – | 41.5 µM (inactive) | > 100 µM (inactive) | 21.9 | 92.9 µM (inactive) | > 100 µM (inactive) | 6.25 µM (inactive) | 12.1 µM (inactive) | > 100 µM (inactive) | > 100 µM (inactive) | 23.5 µM (inactive) | > 100 µM (inactive) | > 100 µM (inactive) | > 100 µM (inactive) | 46.7 µM (inactive) | 81.1 µM (inactive) | > 100 µM (inactive) | –
10 | O=C1/C(=C/c2ccccc2)Oc2cc(O)ccc21 | – | > 100 µM (inactive) | > 100 µM (inactive) | > 100 | > 100 µM (inactive) | > 100 µM (inactive) | > 100 µM (inactive) | > 100 µM (inactive) | > 100 µM (inactive) | > 100 µM (inactive) | > 100 µM (inactive) | > 100 µM (inactive) | > 100 µM (inactive) | > 100 µM (inactive) | > 100 µM (inactive) | > 100 µM (inactive) | > 100 µM (inactive) | > 100 µM (inactive)
11 | CC(C)=NOC(=O)Nc1cccc2c1OCO2 | > 100 µM (inactive) | > 100 µM (inactive) | > 100 µM (inactive) | > 100 | > 100 µM (inactive) | > 100 µM (inactive) | > 100 µM (inactive) | > 100 µM (inactive) | > 100 µM (inactive) | > 100 µM (inactive) | > 100 µM (inactive) | > 100 µM (inactive) | > 100 µM (inactive) | – | > 100 µM (inactive) | > 100 µM (inactive) | > 100 µM (inactive) | –
12 | CC1CC(N)=Nc2ccccc2N1 (stereo not drawn) | – | > 100 µM (inactive) | > 100 µM (inactive) | > 100 | > 100 µM (inactive) | 54.2 µM (inactive) | > 100 µM (inactive) | > 100 µM (inactive) | > 100 µM (inactive) | > 100 µM (inactive) | > 100 µM (inactive) | > 100 µM (inactive) | > 100 µM (inactive) | – | – | > 100 µM (inactive) | > 100 µM (inactive) | > 100 µM (inactive)
13 | CCC(=O)Nc1ccc(/N=N/N(C)C)cc1 | > 100 µM (inactive) | > 100 µM (inactive) | > 100 µM (inactive) | > 100 | > 100 µM (inactive) | 2.87 µM (inactive) | > 100 µM (inactive) | > 100 µM (inactive) | > 100 µM (inactive) | > 100 µM (inactive) | 53.7 µM (inactive) | > 100 µM (inactive) | > 100 µM (inactive) | – | 6.64 µM (inactive) | – | > 100 µM (inactive) | > 100 µM (inactive)
14 | O=C1C=C(N2CCCC2)C(=O)c2c(O)ccc(O)c21 | > 10 µM (inactive) | > 10 µM (inactive) | – | > 10 | > 10 µM (inactive) | > 10 µM (inactive) | > 10 µM (inactive) | > 10 µM (inactive) | > 10 µM (inactive) | > 10 µM (inactive) | 4.6 µM (inactive) | > 10 µM (inactive) | > 10 µM (inactive) | – | > 10 µM (inactive) | > 10 µM (inactive) | – | > 10 µM (inactive)
15 | CCOC(=O)c1sc2nc1CSc1sc(=S)sc1SCc1nc(sc1C(=O)OCC)-c1nc(c(C(=O)OCC)s1)CSc1sc(=S)sc1SCc1nc-2sc1C(=O)OCC | – | > 10 µM (inactive) | > 10 µM (inactive) | > 10 | > 10 µM (inactive) | > 10 µM (inactive) | > 10 µM (inactive) | – | > 10 µM (inactive) | > 10 µM (inactive) | > 10 µM (inactive) | > 10 µM (inactive) | > 10 µM (inactive) | > 10 µM (inactive) | > 10 µM (inactive) | > 10 µM (inactive) | > 10 µM (inactive) | > 10 µM (inactive)
16 | COc1cc2c(c(O)c1OC)CC1CCC(=O)N1C2c1cccc2ccccc12 (stereo not drawn) | 18.5 µM (inactive) | 31.6 µM (inactive) | 20.4 µM (inactive) | 24.4 | 18.2 µM (inactive) | 24 µM (inactive) | 16.4 µM (inactive) | – | 25.1 µM (inactive) | 21.9 µM (inactive) | 13.4 µM (inactive) | 18.9 µM (inactive) | 15.6 µM (inactive) | > 100 µM (inactive) | 18.9 µM (inactive) | 39.4 µM (inactive) | 19.8 µM (inactive) | 22.3 µM (inactive)
17 | CCCC(=O)NC(C(=O)OCC)(N1CCOCC1)C(F)(F)F (stereo not drawn) | – | > 100 µM (inactive) | > 100 µM (inactive) | > 100 | > 100 µM (inactive) | > 100 µM (inactive) | > 100 µM (inactive) | > 100 µM (inactive) | > 100 µM (inactive) | > 100 µM (inactive) | > 100 µM (inactive) | > 100 µM (inactive) | > 100 µM (inactive) | > 100 µM (inactive) | > 100 µM (inactive) | > 100 µM (inactive) | > 100 µM (inactive) | > 100 µM (inactive)

From ChEMBL document CHEMBL1201862, “PubChem BioAssay data set” (2004)
